Reference: patent US8883745B2, “C—glycolipids with enhanced Th-1 profile” (New York University, priority 2006, dated 2014)

What was measured:
[1] = test system: IL-4; assay: IL-4 levels in sera upon i.v. glycolipid administration to BALB/c mice (ELISA); type: in vivo; parameters: unit not given here; conditions: for IL-4 level, Total: total over hours 0-72
Procedure: (§1) Five- to six-week-old female C57BL/6 mice and BALB/c mice were purchased from Taconic. Each glycolipid was stored at 1 mg/ml in 100% DMSO. Mice were injected intravenously with 1 μg of each glyocolipid diluted in 200 μL sterile phosphate buffered saline (PBS). At indicated time points, sera were collected from each animal, and concentrations of IFN-γ, IL-4, and IL-12 in the sera were evaluated by enzyme-linked immunosorbent assay (ELISA). Serum concentrations of IFN-γ, IL-4, and IL-12 were evaluated using an ELISA kit (eBioscience, San Diego, Calif.). Briefly, 96 well flat-bottom ELISA plates (NUNC) were coated with capture antibody according to the manufacture's recommendation and incubated overnight at 4° C. The plates were washed with PBS+0.05% Tween 20 (PBS-T), then incubated with manufacturer provided blocking solution for 1 hr at room temperature to block non-specific binding sites. After washing with PBS-T, sera diluted 1:10 was added to the wells and incubated for 2 hrs at room temperature. Plates were then incubated at room temperature for 1 hr with biotintylated detection antibody, washed, incubated with avidin conjugated to horse radish peroxidase (HRP) for 30 min at room temperature, washed, and finally incubated with tetramethylbenzidine substrate solution in the dark for 10 minutes at room temperature. The antibodies, avidin-HRP, and substrate solution were all diluted according to the manufacture's recommendation. Reactions were stopped with 2.0N sulfuric acid and the cytokine concentration in each well was determined by comparing the absorbance at 450 nm in each well to known standards. The levels of Th1- and Th2-type cytokines were determined in two different genetic backgrounds, i.e., in C57BL/6 mice and BALB/c mice. The following compounds were administered: A=compound (A-1 trans-conformer), B=compound (A-2), C=compound (A-3), D=compound (A-4), E=compound (A-5), Z=control (PBS alone), CRONY=α-C-GalCer, KRN=α-GalCer, GCK109 (A-1 trans-conformer), GCK151 (A-1 cis-conformer), GCK152 (A-7). The levels of cytokines were measured at 0, 2, 6, 12, 24, 48, and 72 hours after the compound administration. The levels of Th1-type cytokines IFN-γ and IL-12 are summarized in FIGS. 2A-C and 3A-C, respectively. Table 7 provides IFN-γ/IL-4 and IL-12/IL-4 ratios for various compounds, which can be used as indicators of their ability to selectively stimulate Th1-type immune responses.

[2] = test system: IL-4; assay: IL-4 levels in sera upon i.v. glycolipid administration to C57BL/6 mice (ELISA); type: in vivo; parameters: unit not given here; conditions: for IL-4 level, Total: total over hours 0-72
Procedure: as §1

[3] = test system: melanoma metastases; conditions: in vivo administration; cited from earlier work
[4] = test system: rodent malaria parasites, P. yoeli and P. berghei; conditions: in vivo administration; cited from earlier work

CCCCCCCCCCCCCC[C@@H](O)[C@@H](O)[C@H](CC[C@H]1O[C@H](CO)[C@H](O)[C@H](O)[C@H]1O)NC(=O)CCCCCCCCCCCCCCCCCCCOCCCCCC [A-4]
IL-4 level, average ([1]; hour 0): 27
IL-4 level, test 1 ([1]; hour 0): 27
IL-4 level, test 2 ([1]; hour 0): 27
IL-4 level, average ([1]; hour 2): 207
IL-4 level, test 1 ([1]; hour 2): 200
IL-4 level, test 2 ([1]; hour 2): 214
IL-4 level, average ([1]; hour 6): 79.5
IL-4 level, test 1 ([1]; hour 6): 85
IL-4 level, test 2 ([1]; hour 6): 74
IL-4 level, average ([1]; hour 12): 58
IL-4 level, test 1 ([1]; hour 12): 64
IL-4 level, test 2 ([1]; hour 12): 52
IL-4 level, average ([1]; hour 24): 67.5
IL-4 level, test 1 ([1]; hour 24): 50
IL-4 level, test 2 ([1]; hour 24): 85
IL-4 level, average ([1]; hour 48): 59
IL-4 level, test 1 ([1]; hour 48): 52
IL-4 level, test 2 ([1]; hour 48): 66
IL-4 level, average ([1]; hour 72): 12
IL-4 level, test 1 ([1]; hour 72): 12
IL-4 level, test 2 ([1]; hour 72): 12
IL-4 level, Total [1]: 511
IL-4 level, average ([2]; hour 0): 46
IL-4 level, test 1 ([2]; hour 0): 46
IL-4 level, test 2 ([2]; hour 0): 46
IL-4 level, average ([2]; hour 2): 696.5
IL-4 level, test 1 ([2]; hour 2): 627
IL-4 level, test 2 ([2]; hour 2): 766
IL-4 level, average ([2]; hour 6): 126
IL-4 level, test 1 ([2]; hour 6): 83
IL-4 level, test 2 ([2]; hour 6): 169
IL-4 level, average ([2]; hour 12): 43.5
IL-4 level, test 1 ([2]; hour 12): 40
IL-4 level, test 2 ([2]; hour 12): 47
IL-4 level, average ([2]; hour 24): 29.5
IL-4 level, test 1 ([2]; hour 24): 29
IL-4 level, test 2 ([2]; hour 24): 30
IL-4 level, average ([2]; hour 48): 28.5
IL-4 level, test 1 ([2]; hour 48): 39
IL-4 level, test 2 ([2]; hour 48): 18
IL-4 level, average ([2]; hour 72): 41.5
IL-4 level, test 1 ([2]; hour 72): 54
IL-4 level, test 2 ([2]; hour 72): 29
IL-4 level, Total [2]: 1014

CCCCCCCCCCCCCCCCC/C=C/CCCCCCCCC(=O)N[C@@H](CC[C@H]1O[C@H](CO)[C@H](O)[C@H](O)[C@H]1O)[C@H](O)[C@H](O)CCCCCCCCCCCCCC [A-3]
IL-4 level, average ([1]; hour 0): 27
IL-4 level, test 1 ([1]; hour 0): 27
IL-4 level, test 2 ([1]; hour 0): 27
IL-4 level, average ([1]; hour 2): 307.5
IL-4 level, test 1 ([1]; hour 2): 273
IL-4 level, test 2 ([1]; hour 2): 342
IL-4 level, average ([1]; hour 6): 54.5
IL-4 level, test 1 ([1]; hour 6): 56
IL-4 level, test 2 ([1]; hour 6): 53
IL-4 level, average ([1]; hour 12): 48
IL-4 level, test 1 ([1]; hour 12): 44
IL-4 level, test 2 ([1]; hour 12): 52
IL-4 level, average ([1]; hour 24): 44
IL-4 level, test 1 ([1]; hour 24): 44
IL-4 level, test 2 ([1]; hour 24): 44
IL-4 level, average ([1]; hour 48): 43
IL-4 level, test 1 ([1]; hour 48): 48
IL-4 level, test 2 ([1]; hour 48): 38
IL-4 level, average ([1]; hour 72): 12.23
IL-4 level, test 1 ([1]; hour 72): 12.23
IL-4 level, test 2 ([1]; hour 72): 12.23
IL-4 level, Total [1]: 538
IL-4 level, average ([2]; hour 0): 46
IL-4 level, test 1 ([2]; hour 0): 46
IL-4 level, test 2 ([2]; hour 0): 46
IL-4 level, average ([2]; hour 2): 576
IL-4 level, test 1 ([2]; hour 2): 398
IL-4 level, test 2 ([2]; hour 2): 754
IL-4 level, average ([2]; hour 6): 72.5
IL-4 level, test 1 ([2]; hour 6): 59
IL-4 level, test 2 ([2]; hour 6): 86
IL-4 level, average ([2]; hour 12): 49
IL-4 level, test 1 ([2]; hour 12): 43
IL-4 level, test 2 ([2]; hour 12): 55
IL-4 level, average ([2]; hour 24): 57.5
IL-4 level, test 1 ([2]; hour 24): 49
IL-4 level, test 2 ([2]; hour 24): 66
IL-4 level, average ([2]; hour 48): 54.5
IL-4 level, test 1 ([2]; hour 48): 54
IL-4 level, test 2 ([2]; hour 48): 55
IL-4 level, average ([2]; hour 72): 58
IL-4 level, test 1 ([2]; hour 72): 54
IL-4 level, test 2 ([2]; hour 72): 62
IL-4 level, Total [2]: 915

CCCCCCCCCCCCCCCCCCCCCCCCCC(=O)N[C@@H](CC[C@H]1O[C@H](CO)[C@H](O)[C@H](O)[C@H]1O)[C@H](O)[C@H](O)CCCCCCCCCCCCCC [CRONY, reference compound]
IL-4 level, average ([1]; hour 0): 27
IL-4 level, test 1 ([1]; hour 0): 27
IL-4 level, test 2 ([1]; hour 0): 27
IL-4 level, average ([1]; hour 2): 262.5
IL-4 level, test 1 ([1]; hour 2): 264
IL-4 level, test 2 ([1]; hour 2): 261
IL-4 level, average ([1]; hour 6): 87
IL-4 level, test 1 ([1]; hour 6): 80
IL-4 level, test 2 ([1]; hour 6): 94
IL-4 level, average ([1]; hour 12): 49
IL-4 level, test 1 ([1]; hour 12): 45
IL-4 level, test 2 ([1]; hour 12): 53
IL-4 level, average ([1]; hour 24): 47.5
IL-4 level, test 1 ([1]; hour 24): 49
IL-4 level, test 2 ([1]; hour 24): 46
IL-4 level, average ([1]; hour 48): 46.5
IL-4 level, test 1 ([1]; hour 48): 45
IL-4 level, test 2 ([1]; hour 48): 48
IL-4 level, average ([1]; hour 72): 67
IL-4 level, test 1 ([1]; hour 72): 67
IL-4 level, test 2 ([1]; hour 72): 67
IL-4 level, Total [1]: 588
IL-4 level, average ([2]; hour 0): 46
IL-4 level, test 1 ([2]; hour 0): 46
IL-4 level, test 2 ([2]; hour 0): 46
IL-4 level, average ([2]; hour 2): 464
IL-4 level, test 1 ([2]; hour 2): 286
IL-4 level, test 2 ([2]; hour 2): 642
IL-4 level, average ([2]; hour 6): 73
IL-4 level, test 1 ([2]; hour 6): 48
IL-4 level, test 2 ([2]; hour 6): 98
IL-4 level, average ([2]; hour 12): 34
IL-4 level, test 1 ([2]; hour 12): 12
IL-4 level, test 2 ([2]; hour 12): 56
IL-4 level, average ([2]; hour 24): 23
IL-4 level, test 1 ([2]; hour 24): 16
IL-4 level, test 2 ([2]; hour 24): 30
IL-4 level, average ([2]; hour 48): 11.5
IL-4 level, test 1 ([2]; hour 48): 17
IL-4 level, test 2 ([2]; hour 48): 6
IL-4 level, average ([2]; hour 72): 21.5
IL-4 level, test 1 ([2]; hour 72): 15
IL-4 level, test 2 ([2]; hour 72): 28
IL-4 level, Total [2]: 674
improved activity against melanoma metastases (as compared to α-GalCer) [3]: 100 fold
improved activity against malaria (as compared to α-GalCer) [4]: 1000 fold
